Target: Recombinant GST-Tie2 (Homo sapiens, UniProt Q02763)
Test: Tie2 fluorescence polarization kinase activity assay (TIE2-FP)
Type: biochemical
Conditions: 200 μM ATP, activated enzyme; read-out: TIE2-FP pIC50 (converted)
Procedure: Tie2 Fluorescence Polarization Kinase Activity Assay (TIE2-FP) Activation of Recombinant Tie2 Activation: Recombinant GST-Tie2 is activated by incubating the enzyme in 20 mM Tris-HCl, pH7.5, 12 mM MgCl2, 100 mM NaCl, 20 μM sodium vanidate, 1 mM DTT and 300 μM ATP at room temperature for 2 hours. The activation mixture is then passed through a NAP-25 desalting column (Pharmacia Biotech cat. no. 17-0852-02) to remove the free ATP. The activated enzyme is stored as aliquots at−80° C. in 20mM Tris-HCl, pH7.5 and 100 mM NaCl. Assay Conditions: The final assay conditions are 50 mM HEPES, pH7.5, 5% DMSO (when screening compounds), 200 μM ATP, 5mM MgCl2, 1 mM DTT, 50 μM sodium vanidate, 1 nM activated enzyme, and 200 μM peptide. IC50's of compounds are measured under subsaturating ATP (200 μM) and varing concentrations of activated Tie2 and peptide substrate (RFWKYEFWR-OH; MW 1873 Da, TFA salt). Panvera Anti-phosphotyrosine antibody (Cat#P2840) and PTK Green Tracer (Cat#P2842) are used to detect the phosphorylated peptide. Polarization is measured on a TECAN Polarion in 138-second cycles for 30 minutes at room temperature. IC50's are then determined from the % polarization using normal calculation methods. The IC50 values are converted to pIC50 values, i.e.,−log IC50 in Molar concentration.

Sequence of Recombinant GST-Tie2 (Q02763 23-1124): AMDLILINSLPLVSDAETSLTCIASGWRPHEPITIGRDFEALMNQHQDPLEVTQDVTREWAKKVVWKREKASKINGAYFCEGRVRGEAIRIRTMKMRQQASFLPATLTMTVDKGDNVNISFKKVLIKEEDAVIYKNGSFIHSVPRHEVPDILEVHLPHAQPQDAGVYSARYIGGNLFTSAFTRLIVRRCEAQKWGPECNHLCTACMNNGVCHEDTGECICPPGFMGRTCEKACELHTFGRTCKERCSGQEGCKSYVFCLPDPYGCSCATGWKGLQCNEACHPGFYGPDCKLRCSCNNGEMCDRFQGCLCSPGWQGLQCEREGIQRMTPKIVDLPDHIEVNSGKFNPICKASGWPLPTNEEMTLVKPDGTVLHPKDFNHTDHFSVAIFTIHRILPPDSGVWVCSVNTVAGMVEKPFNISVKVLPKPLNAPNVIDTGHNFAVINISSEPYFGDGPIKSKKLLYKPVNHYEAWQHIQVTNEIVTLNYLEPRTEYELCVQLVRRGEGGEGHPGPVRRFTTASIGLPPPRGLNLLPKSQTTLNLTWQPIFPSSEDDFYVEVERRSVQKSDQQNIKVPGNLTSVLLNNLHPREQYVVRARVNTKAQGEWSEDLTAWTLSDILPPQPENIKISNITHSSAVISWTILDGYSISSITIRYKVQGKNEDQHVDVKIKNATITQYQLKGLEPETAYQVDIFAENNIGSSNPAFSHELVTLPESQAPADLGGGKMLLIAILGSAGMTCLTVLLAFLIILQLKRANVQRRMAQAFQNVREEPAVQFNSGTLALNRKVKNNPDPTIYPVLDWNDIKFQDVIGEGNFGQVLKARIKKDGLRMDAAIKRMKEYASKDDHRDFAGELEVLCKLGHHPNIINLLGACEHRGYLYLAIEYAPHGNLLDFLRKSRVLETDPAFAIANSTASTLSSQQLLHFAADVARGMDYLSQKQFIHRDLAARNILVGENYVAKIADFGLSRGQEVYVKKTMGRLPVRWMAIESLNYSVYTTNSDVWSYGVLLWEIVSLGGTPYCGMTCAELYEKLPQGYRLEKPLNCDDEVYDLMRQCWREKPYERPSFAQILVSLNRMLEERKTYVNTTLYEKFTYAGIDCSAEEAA

IC50 [nM] | SMILES
100 to 1000 | CC(C)(C)n1nc(-c2ccc(NC(=O)Nc3ccc(Oc4ccccc4)cc3)cc2)c(C(N)=O)c1N [Example 32, 5-Amino-1-tert-butyl-3-{4-[3-(4-phenoxy-phenyl)-ureido]-phenyl}-1H-pyrazole-4-carboxylic acid amide]
> 10000 | Cn1nc(-c2ccc(NC(=O)Nc3c(F)cccc3F)cc2)c(C(N)=O)c1N [Example 11, 5-Amino-3-{4-[3-(2,6-difluoro-phenyl)-ureido]-phenyl}-1-methyl-1H-pyrazole-4-carboxylic acid amide]
100 to 1000 | Cc1cccc(NC(=O)Nc2ccc(-c3nn(C)c(N)c3C(N)=O)cc2)c1 [Example 14, 5-Amino-1-methyl-3-[4-(3-m-tolyl-ureido)-phenyl]-1H-pyrazole-4-carboxylic acid amide]
100 to 1000 | CC(C)(C)n1nc(-c2ccc(NC(=O)Nc3cc(Cl)ccc3Cl)cc2)c(C(N)=O)c1N [Example 22, 5-Amino-1-tert-butyl-3-{4-[3-(2,5-dichloro-phenyl)-ureido]-phenyl}-1H-pyrazole-4-carboxylic acid amide]
1000 to 10000 | Cn1nc(-c2ccc(NC(=O)Nc3ccc4c(c3)OCO4)cc2)c(C(N)=O)c1N [Example 12, 5-Amino-3-[4-(3-benzo[1,3]dioxol-5-yl-ureido)-phenyl]-1-methyl-1H-pyrazole-4-carboxylic acid amide]
1000 to 10000 | COc1ccc(NC(=O)Nc2ccc(-c3nn(C(C)(C)C)c(N)c3C(N)=O)cc2)c(OC)c1 [Example 31, 5-Amino-1-tert-butyl-3-{4-[3-(2,4-dimethoxyo-phenyl)-ureido]-phenyl}-1H-pyrazole-4-carboxylic acid amide]
< 100 | Cn1nc(-c2ccc(NC(=O)Nc3cc(C(F)(F)F)ccc3F)cc2)c(C(N)=O)c1N [Example 2, 5-Amino-3-{4-[3-(2-fluoro-5-trifluoromethyl-phenyl)-ureido]-phenyl}-1-methyl-1H-pyrazole-4-carboxylic acid amide]
1000 to 10000 | Cn1nc(-c2ccc(NC(=O)Nc3cccc4ccccc34)cc2)c(C(N)=O)c1N [Example 8, 5-Amino-1-methyl-3-[4-(3-naphthalen-1-yl-ureido)-phenyl]-1H-pyrazole-4-carboxylic acid amide]
< 100 | Cn1nc(-c2ccc(NC(=O)Nc3cc(Cl)ccc3Cl)cc2)c(C(N)=O)c1N [Example 7, 5-Amino-3-{4-[3-(2,5-dichloro-phenyl)-ureido]-phenyl}-1-methyl-1H-pyrazole-4-carboxylic acid amide]
< 100 | NC(=O)c1c(-c2ccc(NC(=O)Nc3cc(C(F)(F)F)ccc3F)cc2)n[nH]c1N [Example 33, 5-Amino-3-{4-[3-2-(fluoro-5-trifluoromethyl-phenyl)-ureido]-phenyl}-1H-pyrazole-4-carboxylic acid amide]
100 to 1000 | Cn1nc(-c2ccc(NC(=O)Nc3cc(C(F)(F)F)cc(C(F)(F)F)c3)cc2)c(C(N)=O)c1N [Example 4, 5-Amino-3-{4-[3-(bis-3,5-trifluoromethyl-phenyl)-ureido]-phenyl}-1-methyl-1H-pyrazole-4-carboxylic acid amide]
100 to 1000 | CC(C)(C)n1nc(-c2ccc(NC(=O)Nc3cccc4ccccc34)cc2)c(C(N)=O)c1N [Example 20, 5-Amino-1-tert-butyl-3-[4-(3-naphthalen-1-yl-ureido)-phenyl]-1H-pyrazole-4-carboxylic acid amide]
100 to 1000 | CC(C)(C)n1nc(-c2ccc(NC(=O)Nc3ccc4c(c3)OCO4)cc2)c(C(N)=O)c1N [Example 27, 5-Amino-3-[4-(3-benzo[1,3]dioxol-5-yl-ureido)-phenyl]-1-tert-butyl-1H-pyrazole-4-carboxylic acid amide]
1000 to 10000 | Cn1nc(-c2ccc(NC(=O)Nc3cccc(Cl)c3)cc2)c(C(N)=O)c1N [Example 6, 5-Amino-3-{4-[3-(3-chloro-phenyl)-ureido]-phenyl}-1-methyl-1H-pyrazole-4-carboxylic acid amide]
< 100 | CC(C)(C)n1nc(-c2ccc(NC(=O)Nc3cccc(Cl)c3)cc2)c(C(N)=O)c1N [Example 21, 5-Amino-1-tert-butyl-3-{4-[3-(3-chloro-phenyl)-ureido]-phenyl}-1H-pyrazole-4-carboxylic acid amide]
1000 to 10000 | Cc1ccccc1NC(=O)Nc1ccc(-c2nn(C)c(N)c2C(N)=O)cc1 [Example 13, 5-Amino-1-methyl-3-[4-(3-o-tolyl-ureido)-phenyl]-1H-pyrazole-4-carboxylic acid amide]

IC50 [nM] | SMILES
100 to 1000 | Cn1nc(-c2ccc(NC(=O)Nc3ccc4ccccc4c3)cc2)c(C(N)=O)c1N [Example 5, 5-Amino-1-methyl-3-[4-(3-naphthalen-2-yl-ureido)-phenyl]-1H-pyrazole-4-carboxylic acid amide]
1000 to 10000 | CC(C)(C)n1nc(-c2ccc(NC(=O)Nc3c(F)cccc3F)cc2)c(C(N)=O)c1N [Example 26, 5-Amino-1-tert-butyl-3-{4-[3-(2,6-difluoro-phenyl)-ureido]-phenyl}-1H-pyrazole-4-carboxylic acid amide]
< 100 | Cc1cccc(NC(=O)Nc2ccc(-c3nn(C(C)(C)C)c(N)c3C(N)=O)cc2)c1 [Example 29, 5-Amino-1-tert-butyl-3-[4-(3-m-tolyl-ureido)-phenyl]-1H-pyrazole-4-carboxylic acid amide]
100 to 1000 | Cn1nc(-c2ccc(NC(=O)Nc3ccc(Oc4ccccc4)cc3)cc2)c(C(N)=O)c1N [Example 17, 5-Amino-1-methyl-3-{4-[3-(4phenoxy-phenyl)-ureido]-phenyl}-1H-pyrazole-4-carboxylic acid amide]
100 to 1000 | CC(C)(C)n1nc(-c2ccc(NC(=O)Nc3cc(F)ccc3F)cc2)c(C(N)=O)c1N [Example 30, 5-Amino-1-tert-butyl-3-{4-[3-(2,5-difluoro-phenyl)-ureido]-phenyl}-1H-pyrazole-4-carboxylic acid amide]
< 100 | CC(C)(C)n1nc(-c2ccc(NC(=O)Nc3cc(C(F)(F)F)ccc3Cl)cc2)c(C(N)=O)c1N [Example 18, 5-Amino-1-tert-butyl-3-{4-[3-(2-chloro-5-trifluoromethyl-phenyl)-ureido]-phenyl}-1H-pyrazole-4-carboxylic acid amide]
< 100 | CC(C)(C)n1nc(-c2ccc(NC(=O)Nc3cc(C(F)(F)F)cc(C(F)(F)F)c3)cc2)c(C(N)=O)c1N [Example 19, 5-Amino-3-{4-[3-(bis-3,5-trifluoromethyl-phenyl)-ureido]-phenyl}-1-tert-butyl-1H-pyrazole-4-carboxylic acid amide]
100 to 1000 | Cn1nc(-c2ccc(NC(=O)Nc3ccc(-c4ccccc4)cc3)cc2)c(C(N)=O)c1N [Example 10, 5-Amino-3-[4-(3-biphenyl4-yl-ureido)-phenyl]-1-methyl-1H-pyrazole-4-carboxylic acid amide]
< 100 | Cn1nc(-c2ccc(NC(=O)Nc3cc(C(F)(F)F)ccc3Cl)cc2)c(C(N)=O)c1N [Example 3, 5-Amino-3-{4-[3-(2-chloro-5-trifluoromethyl-phenyl)-ureido]-phenyl}-1-methyl-1H-pyrazole-4-carboxylic acid amide]
100 to 1000 | CC(C)(C)n1nc(-c2ccc(NC(=O)Nc3ccc(-c4ccccc4)cc3)cc2)c(C(N)=O)c1N [Example 25, 5-Amino-3-[4-(3-biphenyl-4-yl-ureido)-phenyl]-1-tert-butyl-1H-pyrazole-4-carboxylic acid amide]
< 100 | CC(C)(C)n1nc(-c2ccc(NC(=O)Nc3cccc(C(F)(F)F)c3)cc2)c(C(N)=O)c1N [Example 24, 5-Amino-1-tert-butyl-3-{4-[3-(3-trifluoromethyl-phenyl)-ureido]-phenyl}-1H-pyrazole-4-carboxylic acid amide]
1000 to 10000 | Cn1nc(-c2ccc(NC(=O)Nc3cc(F)ccc3F)cc2)c(C(N)=O)c1N [Example 15, 5-Amino-3-{4-[3-(2,5-difluoro-phenyl)-ureido]-phenyl}-1-methyl-1H-pyrazole-4-carboxylic acid amide]
< 100 | CC(C)(C)n1nc(-c2ccc(NC(=O)Nc3ccc4ccccc4c3)cc2)c(C(N)=O)c1N [Example 23, 5-Amino-1-tert-butyl-3-[4-(3-naphthalen-2-yl-ureido)-phenyl]-1H-pyrazole-4-carboxylic acid amide]
1000 to 10000 | COc1ccc(NC(=O)Nc2ccc(-c3nn(C)c(N)c3C(N)=O)cc2)c(OC)c1 [Example 16, 5-amino-3-{4-[3-(2,4-dimethoxy-phenyl)-ureido]-phenyl}-1-methyl-1H-pyrazole-4-carboxylic acid amide]
< 100 | Cn1nc(-c2ccc(NC(=O)Nc3cccc(C(F)(F)F)c3)cc2)c(C(N)=O)c1N [Example 9, 5-Amino-1-methyl-3-{4-[3-(3-trifluoromethyl-phenyl)-ureido]-phenyl}-1H-pyrazole-4-carboxylic acid amide]

From patent publication US7307097B2, “Chemical compounds” (SmithKline Beechman Corporation, priority 2001, dated 2007)
